Laboratory results: patent US11312692B1, “Polymorphic compounds and uses thereof” (Aldeyra Therapeutics, Inc., priority 2018, dated 2022)

Tests used:
Type in all cases: physicochemical
[1] = Aqueous solubility at pH 1, 4.5 and 6.8 (HPLC concentration, XRPD of solids); settings: for solubility: thermodynamic from solid, shaken at ambient temperature
Description: Approximately 20 mg of each of Compounds 1 and 5-8 was weighed into three 2 mL vials. The appropriate pH buffer was added to achieve pH values of pH 1, 4.5 and 6.8. The pH was measured after buffer addition and the pH adjusted if required back to the appropriate pH. […]

[2] = Dynamic Vapour Sorption (DVS) with post-DVS XRPD; settings: for solid form post-DVS by XRPD: after DVS cycles
Description: Dynamic Vapour Sorption (DVS): approximately, 10 mg of sample was placed into a mesh vapour sorption balance pan and loaded into a DVS-1 dynamic vapour sorption balance, a DVS Intrinsic dynamic vapour sorption balance or a DVS Advantage dynamic vapour sorption balance by Surface Measurement Systems. The sample was subjected to a ramping profile from 40-90% relative humidity (RH) at 10% increments, maintaining the sample at each step until a stable weight had been achieved (dm/dt 0.004%, minimum step length 30 minutes, maximum step length 500 minutes) at 25° C. After completion of the sorption cycle, the sample was dried using the same procedure to 0% RH and then a second sorption cycle back to 40% RH. Two cycles were performed. The weight change during the sorption/desorption cycles were plotted, allowing for the hygroscopic nature of the sample to be determined. XRPD analysis was then carried out on any solid retained.

[3] = 1 week stability (40° C./75% RH, 80° C., ambient), XRPD and HPLC purity
Description: Scale up of both Forms B and C was carried out on the 200 mg scale. Form B was produced from acetone through evaporation. Characterisation of the solid, indicated the material had long lath-like crystals, with the remaining parameters consistent with the previously produced Form B material. Further analysis of the solid by NMR and mass spectrometry identified the material as an imine.
(§1) Form C material was produced through crash cooling to −18° C. in acetonitrile, the material produced through this scale-up was identified as being similar to the previous Form C material.

[4] = Conversion of solid form on grinding (XRPD)
Description: as §1

## CC(C)(O)c1cc2oc(-c3ccccc3)nc2cc1N [Compound 1 Form A]
[1]; aqueous buffer, pH 4.5 buffer
  solubility: ≥ 500 mg/mL
[1]; aqueous buffer, pH 6.8 buffer
  solubility: ≥ 500 mg/mL
[1]; simulated gastric fluid, pH 1 buffer
  solubility: ≥ 500 mg/mL

## CC(C)(O)c1cc2oc(-c3ccccc3)nc2cc1N [Compound A, Form A]
[2]; DVS, 25° C.
  hygroscopic nature (DVS): slightly hygroscopic
[2]; DVS, 25° C., 90% RH
  uptake at 90% RH (DVS): 0.6%
[2]
  solid form post-DVS by XRPD: consistent with the input material

## CC(C)(O)c1cc2oc(-c3ccccc3)nc2cc1N [Compound A, Form C]
[3]; 1 week, 40° C./75% RH, versus input Form C purity
  drop in purity over the stability period: 0.1%
[3]; 1 week, 80° C.
  change in purity over the stability period: no change
[3]; 1 week, ambient conditions
  change in purity over the stability period: no change
[3]; all three conditions (40° C./75% RH, 80° C., ambient)
  solid form after 1 week stability by XRPD: converted to Form A
[4]
  solid form when ground: mixture of Forms A and C
[2]; DVS, 25° C.
  hygroscopic nature (DVS): slightly hygroscopic
[2]
  solid form post-DVS by XRPD: Form A

## CC(C)(O)c1cc2oc(-c3ccccc3)nc2cc1N.CS(=O)(=O)O [Form A of Compound 1]
[1]; versus Form C of Compound 5, Form A of Compound 6, Form B of Compound 7, Form B of Compound 8, pH 1, 4.5, 6.8 buffers, ca. 20 hours, ambient
  aqueous solubility compared with other salt forms: far more soluble
